Test results as given in ChEMBL document CHEMBL2311481, “Synthesis, characterization and antimalarial activity of quinoline-pyrimidine hybrids” (Bioorg Med Chem, 2013).
≈ marks a conversion by molar mass, not a printed value.

What was measured:
Plasmodium falciparum [1] = assay: microbe, parasite or virus in culture; conditions: D10, 48 h
[2] = Aqueous solubility in pH 7.4 PBS buffer at 37 degC incubated for 24 hrs by HPLC method; type: physicochemical; conditions: pH 7.4, 24 h
Plasmodium falciparum [3] = assay: Resistance index, ratio of IC50 for chloroquine-resistant Plasmodium falciparum Dd2 to IC50 for chloroquine-susceptible Plasmodium falciparum D10; type: functional
[4] = Aqueous solubility in pH 5.5 PBS buffer at 37 degC incubated for 24 hrs by HPLC method; type: physicochemical; conditions: pH 5.5, 24 h
[5] = Partition coefficient, log D of the compound using n-octanol/PBS buffer system at pH 5.5 by HPLC method; type: physicochemical
Plasmodium falciparum [6] = assay: Antimalarial activity against chloroquine-resistant Plasmodium falciparum Dd2 asexual erythrocyte forms after 48 hrs by parasite LDH assay; type: functional, organism-based; conditions: Dd2, 48 h
CHO = assay: Cytotoxicity against CHO cells after 48 hrs by MTT assay; type: cell-based; conditions: Cricetulus griseus
[7] = Partition coefficient, log D of the compound using n-octanol/PBS buffer system at pH 7.4 by HPLC method; type: physicochemical
[8] = Selectivity index, ratio of IC50 for CHO cells to IC50 for chloroquine-susceptible Plasmodium falciparum D10; type: toxicity, cell-based; conditions: hamster, read-out: Ratio IC50
[9] = Solubility in octanol at pH 5.5; type: physicochemical; conditions: buffer
[10] = Solubility in octanol at pH 7.4; type: physicochemical
[11] = Dissociation constant, pKa of the compound at pH 7.4
[12] = n-octanol/PBS buffer, read-out: logD

pKa [11]	SMILES	IC50 (Plasmodium falciparum [1])	solubility [2]	Ratio IC50 (Plasmodium falciparum [3])	solubility [4]	logD ([5]; octanol/water)	IC50 (Plasmodium falciparum [6])	IC50 (CHO)	logD ([7]; octanol/water)	selectivity ratio [8]	logD [5, 12]	solubility [9]	logD [7, 12]	solubility [10]
	Nc1cc(Nc2ccc(Nc3ccnc4cc(Cl)ccc34)cc2)nc(N)n1	0.22 µM	ND(Insoluble)	0.5	0.01 µM (≈ 0.00378 µg/mL)	ND(Insoluble)	0.107 µM	13.8 µM	ND(Insoluble)	63				
	CCC(COc1cc(N)nc(N)n1)Nc1ccnc2cc(Cl)ccc12 (stereo unspecified)	0.157 µM	0.02 µM (≈ 0.00718 µg/mL)	1.4	0.04 µM (≈ 0.0144 µg/mL)		0.21 µM	156 µM		995	1.07	0.49 µM (≈ 0.176 µg/mL)	2.47	5.68 µM (≈ 2.04 µg/mL)
	CC(COc1cc(N)nc(N)n1)Nc1ccnc2cc(Cl)ccc12 (stereo unspecified)	0.243 µM	0.25 µM (≈ 0.0862 µg/mL)	2.3	1.45 µM (≈ 0.5 µg/mL)		0.543 µM	250 µM		1030	-1.34	0.07 µM (≈ 0.0241 µg/mL)	0.92	2.14 µM (≈ 0.738 µg/mL)
	Nc1cc(NCCNc2ccnc3cc(Cl)ccc23)nc(N)n1	0.317 µM	0.12 µM (≈ 0.0396 µg/mL)	3.2	0.52 µM (≈ 0.171 µg/mL)		1.02 µM	190 µM		607	-0.07	0.45 µM (≈ 0.148 µg/mL)	0.78	0.72 µM (≈ 0.237 µg/mL)
	Nc1cc(NCCCCNc2ccnc3cc(Cl)ccc23)nc(N)n1	0.58 µM	0.94 µM (≈ 0.336 µg/mL)	2.2	1.04 µM (≈ 0.372 µg/mL)		1.26 µM	162 µM		280	-0.74	0.19 µM (≈ 0.068 µg/mL)	0.49	2.91 µM (≈ 1.04 µg/mL)
	Nc1cc(OCCOCCNc2ccnc3cc(Cl)ccc23)nc(N)n1	0.837 µM	0.84 µM (≈ 0.315 µg/mL)	5	1.17 µM (≈ 0.439 µg/mL)		4.1 µM	250 µM		303	-0.29	0.6 µM (≈ 0.225 µg/mL)	-0.28	0.44 µM (≈ 0.165 µg/mL)
7.36	CCc1nc(N)nc(N)c1-c1ccc(Cl)cc1 [PYRIMETHAMINE]	0.07 µM	0.15 µM (≈ 0.0373 µg/mL)		1.16 µM (≈ 0.289 µg/mL)						0.76	6.67 µM (≈ 1.66 µg/mL)	1.93	12.8 µM (≈ 3.19 µg/mL)
	Nc1cc(NCCCNc2ccnc3cc(Cl)ccc23)nc(N)n1	0.85 µM	0.62 µM (≈ 0.213 µg/mL)	1.4	0.88 µM (≈ 0.303 µg/mL)		1.21 µM	255 µM		308	-0.74	0.16 µM (≈ 0.055 µg/mL)	0.11	0.79 µM (≈ 0.272 µg/mL)
	Nc1cc(N2CCN(c3ccnc4cc(Cl)ccc34)CC2)nc(N)n1	0.07 µM	0.01 µM (≈ 0.00356 µg/mL)	2.4	0.66 µM (≈ 0.235 µg/mL)		0.157 µM	146 µM	ND(Insoluble)	2070	-0.99	0.07 µM (≈ 0.0249 µg/mL)		
	Nc1cc(OCCCNc2ccnc3cc(Cl)ccc23)nc(N)n1	0.217 µM	0.12 µM (≈ 0.0414 µg/mL)	2.2	0.31 µM (≈ 0.107 µg/mL)		0.467 µM	107 µM		494	-0.08	0.25 µM (≈ 0.0862 µg/mL)	1.01	1.2 µM (≈ 0.414 µg/mL)
	CC[C@H]1CN2CCc3cc(OC)c(OC)cc3[C@@H]2C[C@@H]1C[C@H]1NCCc2cc(OC)c(OC)cc21 [EMETINE]							125 µM						
	Nc1cc(OCCNc2ccnc3cc(Cl)ccc23)nc(N)n1	0.23 µM	0.23 µM (≈ 0.0761 µg/mL)	2.6	0.3 µM (≈ 0.0992 µg/mL)		0.58 µM	174 µM		764	-0.3	0.15 µM (≈ 0.0496 µg/mL)	0.9	1.84 µM (≈ 0.609 µg/mL)
